According to patent publication US20230310539A1, “TREATMENT OF DISEASE WITH EPOR ANTAGONIST” (Epo-Med Inc., priority 2020, published 2023):
Where a SMILES comes first, the peptide text is derived from it. Bridges are numbered along the chain shown (N, C = ends). [ ]: non-standard residue; d: D form. Ala(benzothiazol-2-yl) = N[C@@H](Cc1nc2ccccc2s1)C(=O)O; NH = not defined here

B1: human erythropoietin receptor (EpoR), wild-type (receptor)
chain: APPPNLPDPKFESKAALLAARGPEELLCFTERLEDLVCFWEEAASAGVGPGNYSFSYQLEDEPWKLCRLHQAPTARGAVRFWCSLPTADTSSFVPLELRVTAASGAPRYHRVIHINEVVLLDAPVGLVARLADESGHVVLRWLPPPETPMTSHIRYEVDVSAGNGAGSVQRVEILEGRTECVLSNLRGRTRYTFAVRARMAEPSFGGFWSAWSEPVSLLTPSDLDPLILTLSLILVVILVLLTVLALLSHRRALKQKIWPGIPSPESEFEGLFTTHKGNFQLWLYQNDGCLWWSPCTPFTEDPPASLEVLSERCWGTMQAVEPGTDDEGPLLEPVGSEHAQDTYLVLDKWLLPRNPPSEDLPGPGGSVDIVAMDEGSEASSCSSALASKPSPEGASAASFEYTILDPSSQLLRPWTLCPELPPTPPHLKYLYLVVSDSGISTDYSSGDSQGAQGGLSDGPYSNPYENSLIPAAEPLPPSYVACS
notes: Endogenous on human AsPC-1, HCC1806 and UT-7/Epo cells, or overexpressed from a vector in AsPC-1 and 293T cells; also called Epo receptor; wild-type EpoR

Columns and labels:
[1] = Body weight of AsPC-1 cancer bearing mice; type: in vivo, mouse; conditions: ERA-350 0.2 mg/day intraperitoneally, twice a week for 4 weeks
Description: AsPC-1 cells cultured in the similar manner as Example 1 were collected, suspended in RPMI-1640 medium containing 10% Matrigel (BD Bioscience, 354234), and transplanted subcutaneously to the right side on the back of a 6-week-old male nude mouse (Japan SLC, BALB/cSlc-nu/nu) (5×10^6/0.1 mL/mouse). The length (L) and width (W) of the tumor were measured using a digital caliper. When the tumor volume (V) calculated from the formula V=L×W^2/2 reached about 150 to 200 mm^3, the mice were separated into groups and administered with test compounds (ERA-350 and ERA-350+gemcitabine). Saline was administered to a control group. The compounds were administered intraperitoneally (0.1 mL/mouse, 6 mice/test compound) once daily (0.2 mg/day for ERA-350, and 1 mg/day for gemcitabine), twice a week for 4 weeks. The tumor size and body weight were measured twice a week to monitor the effect of the administration of test compounds.

EpoR in AsPC-1 cells = biological target: T1, EpoR in AsPC-1 cells (Homo sapiens, UniProt P19235); assay: Immunofluorescence co-localization of biotin-labeled anti-EpoR peptide with EpoR in AsPC-1 cells; type: cell-based; conditions: 100 μM, 1 hour at 37° C.
T1 construct: The test used human pancreatic cancer derived AsPC-1 cells (ECACC, 96020930); host or cells: AsPC-1
T1 sequence (P19235 25-508): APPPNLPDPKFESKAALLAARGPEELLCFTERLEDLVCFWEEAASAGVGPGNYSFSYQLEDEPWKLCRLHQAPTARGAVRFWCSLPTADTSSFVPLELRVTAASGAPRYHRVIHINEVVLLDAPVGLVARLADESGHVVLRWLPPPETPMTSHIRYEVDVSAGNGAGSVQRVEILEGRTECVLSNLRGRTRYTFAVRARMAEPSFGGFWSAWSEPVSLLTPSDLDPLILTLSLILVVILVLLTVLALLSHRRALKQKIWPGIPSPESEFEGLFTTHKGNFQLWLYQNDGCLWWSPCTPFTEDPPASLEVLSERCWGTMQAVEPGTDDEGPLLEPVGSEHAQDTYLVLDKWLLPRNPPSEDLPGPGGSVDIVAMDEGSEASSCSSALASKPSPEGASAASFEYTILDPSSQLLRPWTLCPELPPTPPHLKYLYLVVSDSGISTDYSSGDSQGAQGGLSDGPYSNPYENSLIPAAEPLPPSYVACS
Description: (§1) The test used human pancreatic cancer derived AsPC-1 cells (ECACC, 96020930) and human breast cancer derived HCC1806 cells (ATCC, CRL-2335) that were passaged (twice/week) under the condition of 37° C. and 5% CO2-95% air using RPMI-1640 medium (Sigma, R8758-500 ML) containing 10% fetal bovine serum (biowest, S182H-500) and 1 mM sodium pyruvate (gibco, 11360-070).
(§2) These bone marrow cells (2×10^6 cells) and cancer cells (AsPC-1 cells and HCC1806 cells; both 2×10^3 cells) were incubated with GT-11352 (biotin labeled, 100 μM) for 1 hour at 37° C. in the presence or absence of recombinant human erythropoietin (rhEpo) (10 U/mL). Subsequently, the cells were fixed with formalin, blocked, and subjected to immunofluorescent staining. The nucleus was stained by DAPI staining. The cells were observed through fluorescence with a microscope (Keyence, BZ-X800). The following antibodies were used. • EpoR detection: rat anti-EpoR antibody (Merck, clone BCO-3H2) and anti-rat IgG-Alexa® Fluor 594 (Abcam, ab150160) • GT-11352 detection: streptavidin-FITC (Tokyo Chemical Industry, S0966)

EpoR in HCC1806 cells = biological target: T2, EpoR in HCC1806 cells (Homo sapiens, UniProt P19235); assay: Immunofluorescence co-localization of biotin-labeled anti-EpoR peptide with EpoR in HCC1806 cells; type: cell-based; conditions: 100 μM, 1 hour at 37° C.
T2 construct: human breast cancer derived HCC1806 cells (ATCC, CRL-2335); host or cells: HCC1806
T2 sequence (P19235 25-508): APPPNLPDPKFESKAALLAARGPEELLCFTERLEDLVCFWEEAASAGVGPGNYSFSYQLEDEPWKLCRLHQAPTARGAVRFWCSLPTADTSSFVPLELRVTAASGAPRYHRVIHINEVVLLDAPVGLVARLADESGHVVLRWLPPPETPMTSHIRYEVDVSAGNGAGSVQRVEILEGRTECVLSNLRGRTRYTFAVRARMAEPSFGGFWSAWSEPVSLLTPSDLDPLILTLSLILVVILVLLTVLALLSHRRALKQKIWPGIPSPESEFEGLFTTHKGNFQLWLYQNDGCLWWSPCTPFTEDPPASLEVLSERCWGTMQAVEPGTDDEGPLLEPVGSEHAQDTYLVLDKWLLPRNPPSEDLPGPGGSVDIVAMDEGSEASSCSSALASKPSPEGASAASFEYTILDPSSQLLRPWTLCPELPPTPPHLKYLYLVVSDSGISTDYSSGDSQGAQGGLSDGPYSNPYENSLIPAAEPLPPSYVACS
Description: as §1, §2

[2] = biological target: T3, EpoR in bone marrow cells (Mus musculus, UniProt P14753); assay: Immunofluorescence co-localization of biotin-labeled anti-EpoR peptide with EpoR in bone marrow cells; type: cell-based; conditions: 100 μM, 1 hour at 37° C.
T3 construct: tissue Japan SLC; host or cells: mouse (ICR, female) femur bone marrow cells
T3 sequence (P14753 25-507): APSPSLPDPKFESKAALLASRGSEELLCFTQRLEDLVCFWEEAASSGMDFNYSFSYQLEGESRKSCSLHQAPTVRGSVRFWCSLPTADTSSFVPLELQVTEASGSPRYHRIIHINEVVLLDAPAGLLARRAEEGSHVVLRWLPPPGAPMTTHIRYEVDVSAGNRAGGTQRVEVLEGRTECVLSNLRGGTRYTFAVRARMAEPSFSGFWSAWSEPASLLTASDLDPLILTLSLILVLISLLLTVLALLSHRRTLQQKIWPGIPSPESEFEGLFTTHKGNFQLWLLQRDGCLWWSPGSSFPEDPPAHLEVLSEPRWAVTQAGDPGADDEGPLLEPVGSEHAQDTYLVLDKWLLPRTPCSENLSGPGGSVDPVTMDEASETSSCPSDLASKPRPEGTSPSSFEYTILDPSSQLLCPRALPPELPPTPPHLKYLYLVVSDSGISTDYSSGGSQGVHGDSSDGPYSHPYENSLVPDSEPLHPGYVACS
Description: Bone marrow cells were harvested from mouse femur (Japan SLC, ICR, female).
as §2

[3] = biological target: T4, human βcR (CD131, CSF2RB) (human, UniProt P32927 17-897); assay: co-immunoprecipitation from membrane fractions of AsPC-1 cells (IP with anti-EpoR VP-2E8, blot with anti-EpoR BCO-3H2 or anti-βcR polyclonal antibody)
T4 construct: Endogenous on AsPC-1 and HCC1806 cells; also called βc receptor; IL3RB
T4 sequence: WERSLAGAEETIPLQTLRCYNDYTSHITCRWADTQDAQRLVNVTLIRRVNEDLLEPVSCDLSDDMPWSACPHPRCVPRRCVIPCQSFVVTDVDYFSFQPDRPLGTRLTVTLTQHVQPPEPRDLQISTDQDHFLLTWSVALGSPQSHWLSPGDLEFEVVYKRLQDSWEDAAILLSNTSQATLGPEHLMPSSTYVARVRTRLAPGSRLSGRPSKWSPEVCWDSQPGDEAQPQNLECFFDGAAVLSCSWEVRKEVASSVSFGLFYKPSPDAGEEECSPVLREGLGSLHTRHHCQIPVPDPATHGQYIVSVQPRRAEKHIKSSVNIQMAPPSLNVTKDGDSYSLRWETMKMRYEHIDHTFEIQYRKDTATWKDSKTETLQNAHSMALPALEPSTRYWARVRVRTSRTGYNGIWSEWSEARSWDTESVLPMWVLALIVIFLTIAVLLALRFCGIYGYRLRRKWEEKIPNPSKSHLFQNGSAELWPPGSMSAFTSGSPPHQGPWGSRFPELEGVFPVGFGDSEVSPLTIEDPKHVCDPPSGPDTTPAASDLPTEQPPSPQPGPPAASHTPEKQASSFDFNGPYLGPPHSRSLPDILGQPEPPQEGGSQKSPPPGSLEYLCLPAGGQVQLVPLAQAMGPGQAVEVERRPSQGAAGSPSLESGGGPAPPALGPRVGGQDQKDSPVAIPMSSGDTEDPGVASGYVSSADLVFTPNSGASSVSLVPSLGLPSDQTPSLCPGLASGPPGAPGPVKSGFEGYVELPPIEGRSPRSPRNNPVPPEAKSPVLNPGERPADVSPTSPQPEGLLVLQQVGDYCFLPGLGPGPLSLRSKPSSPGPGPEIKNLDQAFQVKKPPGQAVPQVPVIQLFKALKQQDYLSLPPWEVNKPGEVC
Description: The stable expression strain was cultured and collected. Membrane fractions were prepared using a commercially available membrane protein extraction kit (Mem-PER Plus Membrane Protein Extraction Kit, Thermo Scientific).

[4] = biological target: B1; assay: immunofluorescence colocalization on AsPC-1 and HCC1806 cells, GT-11352 100 µM, no rhEpo

Which Body weight [1] does the source give for `CSCC[C@@H]1NC(=O)[C@@H]2CCCN2C(=O)CNC(=O)[C@H](Cc2ccc(O)cc2)NC(=O)[C@H](Cc2c[nH]cn2)NC(=O)[C@@H](NC(=O)[C@H](CO)NC(C)=O)CSSC[C@@H](C(=O)N[C@@H](CCCCN)C(N)=O)NC(=O)[C@H](C(C)C)NC(=O)[C@H](Cc2nc3ccccc3s2)NC(=O)[C@H]([C@@H](C)O)NC1=O` [ERA-350] (Ac-SCHYGPMT[Ala(benzothiazol-2-yl)]VCK-NH2; disulfide 2-11) here?
The Body weight was “did not affect the body weight”.

Which results are given for “Ac-SCHYGPLT (2-benzothiazolylalanine)VCK-NH-(biotin) [GT-11352]”?
Co-localization of EpoR and peptide (EpoR in AsPC-1 cells; absence of erythropoietin): exhibited colocalization; Co-localization of EpoR and peptide (EpoR in AsPC-1 cells; presence of rhEpo 10 U/mL): exhibited colocalization; Co-localization of EpoR and peptide (EpoR in HCC1806 cells; absence of erythropoietin): exhibited colocalization; Co-localization of EpoR and peptide (EpoR in HCC1806 cells; presence of rhEpo 10 U/mL): exhibited colocalization; Co-localization of EpoR and peptide ([2]; absence of erythropoietin): exhibited colocalization; Co-localization of EpoR and peptide ([2]; presence of rhEpo 10 U/mL): did not exhibit co-localization

Does B1 bind [3]?
Result: binds

B2: Ac-SCHYGPLT (2-benzothiazolylalanine)VCK-NH-(biotin) (GT-11352) (peptide)
peptide: Ac-SCHYGPLT[Ala(benzothiazol-2-yl)]VCK-{NH-biotin}
modifications: disulfide 2-11; reading uncertain; also: printed as Ac-SCHYGPLT (2-benzothiazolylalanine)VCK-NH-(biotin)
notes: Synthetic, biotin-labeled peptide; also called anti-EpoR peptide
Does B2 bind [4]?
Result: binds
